These results are taken from US20230063538A1, “LARGE SCALE PROCESS” (GALECTO BIOTECH AB, priority 2019, published 2023).

This series in a line: Solid-state characterisation of polymorphic Form 1 (hygroscopicity). It counts as physicochemical. The settings on record: crystalline polymorphic Form 1 of the compound of formula (I).

As for `OC[C@H]1O[C@H](Sc2cncc(Br)c2)[C@H](O)[C@@H](n2cc(-c3cc(F)c(F)c(F)c3)nn2)[C@H]1O` [Form 1, 5-Bromopyridin-3-yl 3-deoxy-3-[4-(3,4,5-trifluorophenyl)-1H-1,2,3-triazol-1-yl]-1-thio-α-D-galactopyranoside], the hygroscopicity result was “not hygroscopic”.
